Experimental data reported in ChEMBL document CHEMBL5550173, “Design, synthesis and biological evaluation of indoline-maleimide conjugates as potential antitumor agents for the treatment of colorectal cancer” (Bioorg Med Chem, 2024).
Active and inactive are the calls of the source. The calls are words filed in the database; no cut-off is given here.

Tests used:
[1] = system: HCT-116; assay: Induction of cell cycle arrest in human HCT-116 cells assessed as downregulation of CDK4 expression at 2.5 to 10 uM incubated for 48 hrs by Western blotting analysis; format: functional, cell-based; conditions: dose 2.5-10 µM
[2] = system: RKO; assay: Induction of cell cycle arrest in human RKO cells assessed as downregulation of CDK6 expression at 2.5 to 10 uM incubated for 48 hrs by Western blotting analysis; format: functional, cell-based; conditions: dose 2.5-10 µM
[3] = system: RKO; assay: Induction of apoptosis in human RKO cells assessed as late apoptotic cells at 2.5 uM incubated for 48 hrs by Annexin V-PE and propidium iodide staining based flow cytometry analysis (reference value: 0.3%); format: functional
[4] = system: HCT-116; assay: Induction of apoptosis in human HCT-116 cells assessed as necrotic cells at 10 uM incubated for 48 hrs by Annexin V-PE and propidium iodide staining based flow cytometry analysis (reference value: 1.3%); format: functional
[5] = system: RKO; assay: Induction of cell cycle arrest in human RKO cells assessed as downregulation of CDK4 expression at 2.5 to 10 uM incubated for 48 hrs by Western blotting analysis; format: functional, cell-based; conditions: dose 2.5-10 µM
[6] = Toxicity in BALB/c nude mouse assessed as adverse effect at 5 to 10 mg/kg, ip administered every 2 days; format: organism-based; conditions: in vivo, 48 h, dose 5-10 mg/kg
[7] = molecular target: Glycogen synthase kinase-3 beta (Homo sapiens) (UniProt P49841); assay: Inhibition of GSK-3beta phosphorylation in human HCT-116 cells by incubated for 48 hrs Western blotting analysis; format: cell-based; conditions: dose 2.5-10 µM
[8] = system: HCT-116; assay: Inhibition of colony formation in human HCT-116 cells at 4 uM incubated for 10 days with every 3 days of media replacement by crystal violet staining based assay; format: functional; conditions: HCT-116, 240 h, time 10 day
[9] = system: RKO; assay: Effect on RB1 expression in human RKO cells at 2.5 to 10 uM incubated for 48 hrs by Western blotting analysis; format: functional, cell-based; conditions: dose 2.5-10 µM
[10] = system: HCT-116; assay: Induction of apoptosis in human HCT-116 cells assessed as late apoptotic cells at 10 uM incubated for 48 hrs by Annexin V-PE and propidium iodide staining based flow cytometry analysis (reference value: 0.5%); format: functional
[11] = system: HCT-116; assay: Antitumor activity against human HCT-116 cells xenografted in BALB/c mouse assessed as tumor growth suppression at 5 to 10 mg/kg, ip measured every 2 days by H and E staining based assay; format: functional, organism-based; conditions: dose 5-10 mg/kg
[12] = Acute toxicity in BALB/c mouse assessed as appearance of abnormal behavior at 50 to 100 mg/kg, ip measured every 2 days; format: organism-based; conditions: in vivo, 48 h, dose 50-100 mg/kg
[13] = system: RKO; assay: Inhibition of colony formation in human RKO cells incubated about 10 days with every 3 days of media replacement by crystal violet staining based assay; format: functional, cell-based; conditions: dose 1-4 µM, time 10.0 day
[14] = system: HCT-116; assay: Antitumor activity against human HCT-116 cells xenografted in BALB/c mouse assessed as reduction in tumor volume at 5 to 10 mg/kg, ip measured every 2 days; format: functional, organism-based; conditions: dose 5-10 mg/kg
[15] = system: HCT-116; assay: Cytotoxicity against human HCT-116 cells at 5 uM incubated for 72 hrs by MTS assay; format: functional
[16] = system: HCT-116; assay: Induction of apoptosis in human HCT-116 cells assessed as viable cells at 2.5 uM incubated for 48 hrs by Annexin V-PE and propidium iodide staining based flow cytometry analysis (reference value: 97.8%); format: functional; conditions: read-out: Activity
[17] = system: HCT-116; assay: Inhibition of cell migration in human HCT-116 cells at 2.5 to 10 uM measured upto 48 hrs by scratch wound healing assay; format: functional, cell-based; conditions: dose 2.5-10 µM
[18] = system: HCT-116; assay: Induction of apoptosis in human HCT-116 cells assessed as early apoptotic cells at 5 uM incubated for 48 hrs by Annexin V-PE and propidium iodide staining based flow cytometry analysis (reference value: 0.4%); format: functional
[19] = system: RKO; assay: Inhibition of colony formation in human RKO cells at 4 uM incubated for 10 days with every 3 days of media replacement by crystal violet staining based assay; format: functional; conditions: 240 h, time 10 day
[20] = system: RKO; assay: Induction of cell cycle arrest in human RKO cells assessed as upregulation of p21 expression at 2.5 to 10 uM incubated for 48 hrs by Western blotting analysis; format: functional, cell-based; conditions: dose 2.5-10 µM
[21] = system: HCT-116; assay: Induction of apoptosis in human HCT-116 cells assessed as early apoptotic cells at 10 uM incubated for 48 hrs by Annexin V-PE and propidium iodide staining based flow cytometry analysis (reference value: 0.4%); format: functional
[22] = system: RKO; assay: Induction of apoptosis in human RKO cells assessed as necrotic cells at 10 uM incubated for 48 hrs by Annexin V-PE and propidium iodide staining based flow cytometry analysis (reference value: 0.3%); format: functional
[23] = system: HCT-116; assay: Effect on cyclin D1 expression in human HCT-116 cells at 2.5 to 10 uM incubated for 48 hrs by Western blotting analysis; format: functional, cell-based; conditions: dose 2.5-10 µM
[24] = system: HCT-116; assay: Induction of apoptosis in human HCT-116 cells assessed as upregulation of cleaved caspase-3 expression incubated for 48 hrs by Western blotting analysis; format: functional, cell-based; conditions: dose 2.5-10 µM
[25] = system: RKO; assay: Induction of apoptosis in human RKO cells assessed as necrotic cells at 5 uM incubated for 48 hrs by Annexin V-PE and propidium iodide staining based flow cytometry analysis (reference value: 0.3%); format: functional
[26] = Acute toxicity in BALB/c mouse assessed as lung lesion at 50 to 100 mg/kg, ip measured every 2 days by H and E staining based assay; format: organism-based; conditions: in vivo, 48 h, dose 50-100 mg/kg
[27] = system: HCT-116; assay: Induction of cell cycle arrest in human HCT-116 cells assessed as downregulation of CDK6 expression at 2.5 to 10 uM incubated for 48 hrs by Western blotting analysis; format: functional, cell-based; conditions: dose 2.5-10 µM
[28] = system: HCT-116; assay: Inhibition of colony formation in human HCT-116 cells incubated for 10 days with every 3 days of media replacement by crystal violet staining based assay; format: functional, cell-based; conditions: dose 1-4 µM, time 10.0 day
[29] = system: HCT-116; assay: Induction of apoptosis in human HCT-116 cells assessed as viable cells at 5 uM incubated for 48 hrs by Annexin V-PE and propidium iodide staining based flow cytometry analysis (reference value: 97.8%); format: functional; conditions: read-out: Activity
[30] = system: RKO; assay: Induction of cell cycle arrest in human RKO cells assessed as downregulation of p-Rb expression at 2.5 to 10 uM incubated for 48 hrs by Western blotting analysis; format: functional, cell-based; conditions: dose 2.5-10 µM
[31] = system: HCT-116; assay: Antitumor activity against human HCT-116 cells xenografted in BALB/c mouse assessed as tumor growth suppression at 5 to 10 mg/kg, ip measured every 2 days; format: functional, organism-based; conditions: dose 5-10 mg/kg
[32] = system: HT-29; assay: Cytotoxicity against human HT-29 cells at 5 uM incubated for 72 hrs by MTS assay; format: functional
[33] = system: HCT-116; assay: Effect on AKT level in human HCT-116 cells at 2.5 to 10 uM incubated for 48 hrs by Western blotting analysis; format: functional, cell-based; conditions: dose 2.5-10 µM
[34] = molecular target: Serine/threonine-protein kinase AKT (Homo sapiens) (UniProt P31751+Q9Y243+P31749); assay: Inhibition of AKT phosphorylation in human HCT-116 cells by incubated for 48 hrs Western blotting analysis; format: cell-based; conditions: dose 2.5-10 µM
[35] = system: RKO; assay: Induction of cell cycle arrest in human RKO cells assessed as upregulation of p53 expression at 2.5 to 10 uM incubated for 48 hrs by Western blotting analysis; format: functional, cell-based; conditions: dose 2.5-10 µM
[36] = system: HCT-116; assay: Induction of apoptosis in human HCT-116 cells assessed as viable cells at 10 uM incubated for 48 hrs by Annexin V-PE and propidium iodide staining based flow cytometry analysis (reference value: 97.8%); format: functional; conditions: read-out: Activity
[37] = system: RKO; assay: Inhibition of cell migration in human RKO cells at 2.5 to 10 uM measured upto 48 hrs by scratch wound healing assay; format: functional, cell-based; conditions: dose 2.5-10 µM

Sequence of Serine/threonine-protein kinase AKT (Homo sapiens) (P31749 whole entry, looked up): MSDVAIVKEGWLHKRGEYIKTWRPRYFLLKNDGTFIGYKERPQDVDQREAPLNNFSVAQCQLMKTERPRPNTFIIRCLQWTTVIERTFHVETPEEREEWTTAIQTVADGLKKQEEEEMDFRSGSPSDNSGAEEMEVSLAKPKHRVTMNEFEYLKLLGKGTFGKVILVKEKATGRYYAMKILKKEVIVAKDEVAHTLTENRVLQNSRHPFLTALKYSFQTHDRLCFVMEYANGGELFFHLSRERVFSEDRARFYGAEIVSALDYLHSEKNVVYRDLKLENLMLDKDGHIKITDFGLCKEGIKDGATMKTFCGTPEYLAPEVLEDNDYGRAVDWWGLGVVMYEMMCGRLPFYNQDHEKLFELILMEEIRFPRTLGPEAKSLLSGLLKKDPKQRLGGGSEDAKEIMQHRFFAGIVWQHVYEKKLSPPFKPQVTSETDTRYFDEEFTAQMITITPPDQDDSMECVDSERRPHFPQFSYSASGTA
Sequence of Serine/threonine-protein kinase AKT (Homo sapiens) (P31751 whole entry, looked up): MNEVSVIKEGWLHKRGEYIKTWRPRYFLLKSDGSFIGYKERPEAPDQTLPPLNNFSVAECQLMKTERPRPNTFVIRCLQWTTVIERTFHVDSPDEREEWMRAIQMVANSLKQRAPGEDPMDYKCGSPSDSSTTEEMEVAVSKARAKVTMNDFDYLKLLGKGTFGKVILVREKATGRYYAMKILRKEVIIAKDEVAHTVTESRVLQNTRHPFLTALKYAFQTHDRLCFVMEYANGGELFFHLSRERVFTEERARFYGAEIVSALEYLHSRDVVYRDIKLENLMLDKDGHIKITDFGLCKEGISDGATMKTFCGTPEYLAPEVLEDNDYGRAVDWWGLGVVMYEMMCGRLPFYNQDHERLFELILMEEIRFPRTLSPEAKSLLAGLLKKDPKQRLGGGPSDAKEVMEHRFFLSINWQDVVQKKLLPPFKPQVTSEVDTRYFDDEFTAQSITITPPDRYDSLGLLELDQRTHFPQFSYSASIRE
Sequence of Serine/threonine-protein kinase AKT (Homo sapiens) (Q9Y243 whole entry, looked up): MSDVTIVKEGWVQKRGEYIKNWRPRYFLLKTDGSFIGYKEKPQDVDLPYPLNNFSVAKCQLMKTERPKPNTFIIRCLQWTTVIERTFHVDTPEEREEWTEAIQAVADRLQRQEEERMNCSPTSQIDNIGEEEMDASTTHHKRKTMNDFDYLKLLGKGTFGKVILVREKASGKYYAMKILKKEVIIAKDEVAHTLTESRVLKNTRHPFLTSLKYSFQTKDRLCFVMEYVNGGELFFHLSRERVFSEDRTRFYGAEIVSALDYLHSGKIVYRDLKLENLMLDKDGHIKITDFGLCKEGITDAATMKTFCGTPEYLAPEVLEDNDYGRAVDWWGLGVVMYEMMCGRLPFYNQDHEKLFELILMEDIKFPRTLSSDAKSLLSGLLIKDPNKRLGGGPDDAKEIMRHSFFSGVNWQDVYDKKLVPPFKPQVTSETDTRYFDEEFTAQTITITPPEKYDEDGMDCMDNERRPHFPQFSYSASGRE
Sequence of Glycogen synthase kinase-3 beta (Homo sapiens) (P49841 whole entry, looked up): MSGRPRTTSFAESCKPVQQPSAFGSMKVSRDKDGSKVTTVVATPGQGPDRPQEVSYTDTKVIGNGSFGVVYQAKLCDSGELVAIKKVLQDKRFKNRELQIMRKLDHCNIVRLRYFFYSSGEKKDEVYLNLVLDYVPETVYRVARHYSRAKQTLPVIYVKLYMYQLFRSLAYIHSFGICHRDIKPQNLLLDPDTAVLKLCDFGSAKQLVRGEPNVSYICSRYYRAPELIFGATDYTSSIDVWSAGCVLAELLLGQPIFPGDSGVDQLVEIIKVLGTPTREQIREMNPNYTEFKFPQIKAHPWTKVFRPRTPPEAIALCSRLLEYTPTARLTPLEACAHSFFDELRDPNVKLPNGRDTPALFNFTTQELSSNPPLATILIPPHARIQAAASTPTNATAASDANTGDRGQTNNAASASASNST

C=C(C)C(=O)N1CCc2cccc(C3=CC(=O)N(C)C3=O)c21
Activity [1]: Active | Activity [2]: Active | Activity [3]: 0.4% | Activity [4]: 7.2% | Activity [5]: Active | Activity [6]: Non-Toxic | inhibition [7]: Dose-Dependent Effect | inhibition at 4 µM [8]: 100% | Activity [9]: inactive | Activity [10]: 4.6% | Activity [11]: Active | Activity [12]: Non-Toxic | inhibition [13]: Dose-Dependent Effect | Activity [14]: Active | Activity [15]: 98.06% | viability at 2.5 µM [16]: 96.5% | inhibition [17]: Active | Activity [18]: 1.5% | inhibition at 4 µM [19]: 100% | Activity [20]: Active | Activity [21]: 5% | Activity [22]: 0.7% | Activity [23]: inactive | Activity [24]: Dose-Dependent Effect | Activity [25]: 0% | Activity [26]: Non-Toxic | Activity [27]: Active | inhibition [28]: Dose-Dependent Effect | viability at 5 µM [29]: 93.6% | Activity [30]: Active | Activity [31]: Active | Activity [32]: 99.28% | Activity [33]: inactive | inhibition [34]: Dose-Dependent Effect | Activity [35]: Active | viability at 10 µM [36]: 83.1% | inhibition [37]: Active
